Experiments:
[1] = system: Cabbage Looper (Trichoplusia ni) ("CL"); assay: Bioassay on Cabbage Looper (CL), 128-well diet tray assay, percent mortality; assay type: in vivo; settings: for pest or weed control at 50 µg/cm2: Trichoplusia ni, read-out: CL
Source text: (§1) Bioassays on Beet Armyworm (Spodoptera exigua) (“BAW”) and Cabbage Looper (Trichoplusia ni) (“CL”)
(§2) BAW has few effective parasites, diseases, or predators to lower its population. BAW infests many weeds, trees, grasses, legumes, and field crops. In various places, it is of economic concern upon asparagus, cotton, corn, soybeans, tobacco, alfalfa, sugar beets, peppers, tomatoes, potatoes, onions, peas, sunflowers, and citrus, among other plants. The Cabbage Looper is a member of the moth family Noctuidae. It is found throughout the world. It is attacks cabbage, cauliflower, broccoli, Brussel sprouts, tomatoes, cucumbers, potatoes, kale, turnips, mustard, peppers, eggplant, watermelons, melons, squash, cantaloupe, peas, beans, collards, lettuce, spinach, celery, parsley, beets, peas, alfalfa, soybeans, and cotton. This species is very destructive to plants due to its voracious consumption of leaves. In the case of cabbage, however, they feed not only on the wrapper leaves, but also may bore into the developing head. The larvae consume three times their weight in plant material daily. The feeding sites are marked by large accumulations of sticky, wet fecal material.
(§3) Consequently, because of the above factors control of these pests is important.
(§4) Certain molecules disclosed in this document were tested against BAW and CEW using procedures described in the following examples. In the reporting of the results, the “BAW & CL Rating Table” was used (See Table Section).
Bioassays on Cabbage Looper in CL
(§5) Trays were covered with a clear self-adhesive cover and held at 25° C., 14:10 light-dark for five to seven days. Percent mortality was recorded for the larvae in each well; activity in the eight wells was then averaged. The results are indicated in the table entitled “Table ABC: Biological Results” (See Table Section).

[2] = system: Beet Armyworm (Spodoptera exigua) ("BAW"); assay: Bioassay on Beet Armyworm (BAW), 128-well diet tray assay, percent mortality; assay type: in vivo; settings: for pest or weed control at 50 µg/cm2: Spodoptera exigua, read-out: BAW
Source text: as §1, §2, §3, §4, §5

SMILES	pest or weed control at 50 µg/cm2 [1] [%]	pest or weed control at 50 µg/cm2 [2] [%]	CL rating (percent mortality class) ([1]; Cabbage Looper, 128-well diet tray assay)	BAW rating (percent mortality class) ([2]; Beet Armyworm, 128-well diet tray assay)
CCCc1ccc(C)cc1NC(=S)NC(=O)NCCCCc1ccc(-c2ncn(-c3ccc(OC(F)(F)F)cc3)n2)cc1 [PC151, 1-[(5-methyl-2-propyl-phenyl)carbamothioyl]-3-[4-[4-[1-[4-(trifluoromethoxy)phenyl]-1,2,4-triazol-3-yl]phenyl]butyl]urea]	50 to 100	50 to 100		
Cc1ccc(C(C)C)c(N2CC(C)CS/C2=N\C(=O)NCCc2ccc(-c3ncn(-c4ccc(OC(F)(F)F)cc4)n3)cc2)c1 (centres unmarked) [P64, (Z)-1-(3-(2-isopropyl-5-methylphenyl)-5-methyl-1,3-thiazinan-2-ylidene)-3-(4-(1-(4-(trifluoromethoxy)phenyl)-1H-1,2,4-triazol-3-yl)phenethyl)urea]	50 to 100	50 to 100		
CCC(CNC(=O)/N=C1\SCC(=O)N1c1cc(C)ccc1C(C)C)c1ccc(-c2ncn(-c3ccc(OC(F)(F)F)cc3)n2)cc1 (centres unmarked) [P364, (Z)-1-(3-(2-isopropyl-5-methylphenyl)-4-oxothiazolidin-2-ylidene)-3-(2-(4-(1-(4-(trifluoromethoxy)phenyl)-1H-1,2,4-triazol-3-yl)phenyl)butyl)urea]	50 to 100	50 to 100		
Cc1ccc(C(C)C)c(N2C(=O)CS/C2=N\C(=O)NC(C)Cc2ccc(-c3ncn(-c4ccc(OC(F)(F)F)cc4)n3)cc2)c1 (centres unmarked) [F8, (Z)-1-(3-(2-isopropyl-5-methylphenyl)-4-oxothiazolidin-2-ylidene)-3-(1-(4-(1-(4-(trifluoromethoxy)phenyl)-1H-1,2,4-triazol-3-yl)phenyl)propan-2-yl)urea]			A (50-100)	A (50-100)
CCc1ccccc1N1C(=O)CS/C1=N\C(=O)NCCc1cccc(-c2ncn(-c3ccc(OC(F)(F)F)cc3)n2)c1 [P75, (Z)-1-(3-(2-ethylphenyl)-4-oxothiazolidin-2-ylidene)-3-(3-(1-(4-(trifluoromethoxy)phenyl)-1H-1,2,4-triazol-3-yl)phenethyl)urea]	50 to 100	50 to 100		
Cc1ccc(C(C)C)c(N2C(=O)CS/C2=N\C(=O)NCCCCc2ccc(-c3ncn(-c4ccc(OC(F)(F)F)cc4)n3)cc2)c1 [P150, (Z)-1-(3-(2-isopropyl-5-methylphenyl)-4-oxothiazolidin-2-ylidene)-3-(4-(4-(1-(4-(trifluoromethoxy)phenyl)-1H-1,2,4-triazol-3-yl)phenyl)butyl)urea]	50 to 100	50 to 100		
CCc1cccc(C)c1N1C(=O)CS/C1=N\C(=O)NCCc1cccc(-c2ncn(-c3ccc(OC(F)(F)F)cc3)n2)c1 [P83, (Z)-1-(3-(2-ethyl-6-methylphenyl)-4-oxothiazolidin-2-ylidene)-3-(3-(1-(4-(trifluoromethoxy)phenyl)-1H-1,2,4-triazol-3-yl)phenethyl)urea]	50 to 100	50 to 100		
CCc1ccccc1N1C(=O)CS/C1=N\C(=O)NCc1ccc(-c2ncn(-c3ccc(OC(F)(F)F)cc3)n2)cc1 [P2, (Z)-1-(3-(2-ethylphenyl)-4-oxothiazolidin-2-ylidene)-3-(4-(1-(4-(trifluoromethoxy)phenyl)-1H-1,2,4-triazol-3-yl)benzyl)urea]	50 to 100	50 to 100		
CCc1cccc(C)c1N1C(=O)CS/C1=N\C(=O)NCCCc1ccc(-c2ncn(-c3ccc(OC(F)(F)F)cc3)n2)cc1 [P101, (Z)-1-(3-(2-ethyl-6-methylphenyl)-4-oxothiazolidin-2-ylidene)-3-(3-(4-(1-(4-(trifluoromethoxy)phenyl)-1H-1,2,4-triazol-3-yl)phenyl)propyl)urea]	50 to 100	0 to 50		
Cc1ccc(C(C)C)c(N2/C(=N/C(=O)NCCc3ccc(-c4ncn(-c5ccc(OC(F)(F)F)cc5)n4)cc3)SCC2C)c1 (centres unmarked) [P58, (Z)-1-(3-(2-isopropyl-5-methylphenyl)-4-methylthiazolidin-2-ylidene)-3-(4-(1-(4-(trifluoromethoxy)phenyl)-1H-1,2,4-triazol-3-yl)phenethyl)urea]	50 to 100	50 to 100		

Reference: patent US20140274688A1, “MOLECULES HAVING CERTAIN PESTICIDAL UTILITIES, AND INTERMEDIATES, COMPOSITIONS, AND PROCESSES RELATED THERETO” (DOW AGROSCIENCES LLC, priority 2013, published 2014)
